This note sets out measurements from US12398119B2, “Piperazine azaspiro derivatives” (PFIZER INC., priority 2018, dated 2025).

For orientation: EC50 means the concentration that produces a half-maximal response.

For the test, the target named is T1, Human M4 mAChR (Homo sapiens, UniProt P08173).
T1 construct: host or cells: HEK293 (Sor-L9 HEK293 human/M4/GloSensor Cell Clone Number 40)
T1 sequence (P08173 1-479): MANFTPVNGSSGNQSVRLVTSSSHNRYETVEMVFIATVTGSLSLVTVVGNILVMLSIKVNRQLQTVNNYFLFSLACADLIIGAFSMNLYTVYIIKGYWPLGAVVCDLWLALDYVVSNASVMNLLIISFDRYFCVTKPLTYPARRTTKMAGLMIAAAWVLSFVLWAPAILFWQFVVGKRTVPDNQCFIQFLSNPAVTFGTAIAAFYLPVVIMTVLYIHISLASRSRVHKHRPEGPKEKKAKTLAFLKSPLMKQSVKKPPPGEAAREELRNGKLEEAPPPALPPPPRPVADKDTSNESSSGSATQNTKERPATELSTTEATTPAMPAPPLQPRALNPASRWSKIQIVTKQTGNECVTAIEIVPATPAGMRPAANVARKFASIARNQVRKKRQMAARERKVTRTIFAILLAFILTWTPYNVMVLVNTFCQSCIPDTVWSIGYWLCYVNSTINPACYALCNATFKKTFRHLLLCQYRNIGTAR
Kind of test: Muscarinic hM4 Agonist GloSensor cAMP Assay. It counts as cell-based. How it is done:
Muscarinic hM4 Agonist GloSensor cAMP Assay Methods
Compounds were prepared in advance of the assay. Test compounds were solubilized in 100% dimethyl sulfoxide (DMSO, Sigma D8418) to a concentration of 30 mM. A 10-point intermediate dilution series using half log dilutions was created in 100% DMSO with a top concentration of 4 mM. The serially diluted compounds were spotted as 200 nL/well in a 384-well plate (Matrix Catalog Number 4325). The final compound concentration range in the assay was […] to 0.3 nM with a final DMSO concentration of 0.25%.
Human M4 mAChR expressing stable cell lines were generated using a parental HEK cell expressing the GloSensor construct (Promega Sor-L9 HEK293 human/M4/GloSensor Cell Clone Number 40). The cells were grown in 90% Dulbecco's Modified Eagle Medium (DMEM, Gibco 11960), 10% fetal bovine serum (FBS, Hyclone CH.30160-03), 1% Penicillin/Streptomycin (Gibco 15070-063), 500 µg/mL Geneticin (Gibco 10131-027), 200 µg/mL Hygromycin B (Invitrogen 10687-010) and 1% Glutamax (Thermo Fisher 35050061).
One day prior to assay, the cells were lifted using dissociation buffer (Gibco 13151-014) and spun in a centrifuge at 250 times gravity for 5 minutes at room temperature. Supernatant was removed and the cell pellet was resuspended in growth media to a concentration of […]. Cells were then added to white poly-d-lysine coated plates (Becton Dickinson 356661) as 40 μL per well (25,000 cells) and incubated overnight (20-24 hours) in a 37° C. humidified incubator with 5% carbon dioxide (C02).
The following day, culture media was removed from the cell plates and replaced with […] equilibration medium containing 88% CO2-independent medium (Invitrogen 18045088), 10% FBS and 2% GloSensor cAMP reagent (Promega E1291) that had been warmed to 37° C. Plates were then covered and incubated for 2 hours at room temperature while protected from light.
To the previously prepared serially diluted compound plates, 200 nL of 4 mM ACh (Sigma A2661, 10 μM final) or 200 nL of 100% DMSO (0.25% final) was added to the positive and negative control wells, respectively. Compound plates were then diluted by adding 16 μL of C02-independent media containing 10% FBS and an EC80 concentration of isoproterenol (Sigma 16504). Prior to compound testing, concentration response curves were run for isoproterenol to determine the EC80 concentration. At the end of the 2 hour equilibration, 10 µL was transferred from the compound plates to the cell plates. The cell plates were incubated an additional 7 minutes at room temperature and then read using a Multi-label EnVision plate reader (Perkin Elmer) for luminescence.
The raw data, expressed as relative light units, was analyzed using Activity Base (IDBS). The percent effect at each compound concentration was calculated based on and relative to the amount of cAMP produced by the positive and negative control wells contained on each assay plate. The positive control wells contained an EC100 concentration of ACh and the negative control wells contained only DMSO. The concentration and % effect values were fit using a four-parameter logistic dose response equation, and the concentration required for 50% effect (EC50) was determined as well as the maximum asymptote of the concentration response curve to define the efficacy.

[1] abbreviates: Emax: maximum asymptote of concentration response curve, relative to ACh positive control (EC100) and DMSO, geometric mean, read-out: % maximum effect.
The mark [2] stands for this setting: HEK293 human/M4/GloSensor cells, EC80 isoproterenol, geometric mean, number of determinations in parentheses, read-out: EC50.
Setting [3] is: enantiomers reported in footnotes to Table 1, number of determinations in parentheses, read-out: M4 EC50.
Where [4] appears, read: enantiomers reported in footnotes to Table 1, number of determinations in parentheses, read-out: M4 Emax.

Read-outs that look alike come from different tables or passages of the source.

With `CCOC(=O)N1CC2(CC(N3CCN(c4ncccc4-c4cc(C)ns4)CC3)C2)C1` [Example 32, ethyl 6-{4-[3-(3-methyl-1,2-thiazol-5-yl)pyridin-2-yl]piperazin-1-yl}-2-azaspiro[3.3]heptane-2-carboxylate], the Emax under setting [1] was 84.3%. Moreover, the EC50 under setting [2] was found to be 27.8 nM.

On to `CCOC(=O)N1CC2(CCC(N3CCN(c4ncccc4-c4cnsn4)CC3)C2)C1` (single isomer, unassigned) [enantiomer of Example 34, ethyl 6-{4-[3-(1,2,5-thiadiazol-3-yl)pyridin-2-yl]piperazin-1-yl}-2-azaspiro[3.4]octane-2-carboxylate], for which the EC50 under setting [3] was determined as 347 nM. Further, under setting [4], the Emax was found to be 72.3%. For the molecule `CCOC(=O)N1CC2(CCC(N3CCN(c4ncccc4N4CCC(c5ccnn5C)CC4)CC3)C2)C1` (stereo not shown) [Example 28, ethyl 6-(4-{3-[4-(1-methyl-1H-pyrazol-5-yl)pipendin-1-yl]pyridin-2-yl}piperazin-1-yl)-2-azaspiro[3.4]octane-2-carboxylate], under setting [1], the Emax stood at 60%. Further, the EC50 under setting [2] came out at 1.78 nM. Turning to `CCOC(=O)N1CC2(CCC(N3CCN(c4ncccc4-c4ccc5nncn5c4)CC3)C2)C1` (stereo not shown) [Example 40, ethyl 6-{4-[3-([1,2,4]triazolo[4,3-a]pyridin-6-yl)pyridin-2-yl]piperazin-1-yl}-2-azaspiro[3.4]octane-2-carboxylate], the Emax under setting [1] came out at 81.6%. Besides, the half-maximal effective concentration (EC50) under setting [2] was 12 nM. For the molecule `CCOC(=O)N1CC2(CCC(N3CCN(c4ncccc4-c4cnsn4)CC3)C2)C1` (single isomer, unassigned) [Example 34, ethyl 6-{4-[3-(1,2,5-thiadiazol-3-yl)pyridin-2-yl]piperazin-1-yl}-2-azaspiro[3.4]octane-2-carboxylate], under setting [1], the Emax came to 96.2%. Also, under setting [2], the EC50 came to 1.28 nM.

Turning to `CCOC(=O)N1CC2(CC(N3CCN(c4ncccc4-c4cnccn4)CC3)C2)C1` [Example 35, ethyl 6-{4-[3-(pyrazin-2-yl)pyridin-2-yl]piperazin-1-yl}-2-azaspiro[3.3]heptane-2-carboxylate], the Emax under setting [1] came to 94.2%. For the same molecule, the EC50 under setting [2] came to 304 nM. For `CCOC(=O)N1CC2(CC[C@@H](N3CCN(c4ncccc4-c4cscn4)CC3)C2)C1` [Example 4, ethyl (6R)-6-{4-[3-(1,3-thiazol-4-yl)pyridin-2-yl]piperazin-1-yl}-2-azaspiro[3.4]octane-2-carboxylate] the same measures were 87.2% and 2.17 nM.

As for `CCOC(=O)N1CC2(CCC(N3CCN(c4ncccc4-c4cncc(OC(F)F)c4)CC3)C2)C1` (stereo not shown) [Example 37, ethyl 6-{4-[5′-(difluoromethoxy)-3,3′-bipyridin-2-yl]piperazin-1-yl}-2-azaspiro[3.4]octane-2-carboxylate], under setting [1], the Emax is 24.7%. Moreover, under setting [2], the EC50 amounted to 6.1 nM.

With `CCOC(=O)N1CC2(CC[C@@H](N3CCN(c4ncccc4-c4cnc(C)nc4)CC3)C2)C1` [Example 47, ethyl (6R)-6-{4-[3-(2-methylpyrimidin-5-yl)pyridin-2-yl]piperazin-1-yl}-2-azaspiro[3.4]octane-2-carboxylate], the Emax under setting [1] came out at 63.5%. The EC50 under setting [2] is 2.78 nM. As for `CCOC(=O)N1CC2(CCC(N3CCN(c4ncccc4-c4cnc(C#N)cn4)CC3)C2)C1` (single isomer, unassigned) [enantiomer of Example 41, ethyl 6-{4-[3-(5-cyanopyrazin-2-yl)pyridin-2-yl]piperazin-1-yl}-2-azaspiro[3.4]octane-2-carboxylate], under setting [3], the EC50 came to 268 nM. Besides, the Emax under setting [4] amounted to 52.7%. On to `CCOC(=O)N1CC2(CCC(N3CCN(c4cccnc4OC(F)(F)F)CC3)C2)C1` (single isomer, unassigned) [enantiomer of Example 20, ethyl 6-{4-[2-(trifluoromethoxy)pyridin-3-yl]piperazin-1-yl}-2-azaspiro[3.4]octane-2-carboxylate], for which the EC50 under setting [3] was found to be 3600 nM. Also, under setting [4], the Emax came out at 95.3%. On to `CCOC(=O)N1CC2(CCC(N3CCN(c4ncccc4-c4cnc(OC)cn4)CC3)C2)C1` (single isomer, unassigned) [Example 3, ethyl 6-{4-[3-(5-methoxypyrazin-2-yl)pyridin-2-yl]piperazin-1-yl}-2-azaspiro[3.4]octane-2-carboxylate], for which, under setting [1], the Emax was 83.7%. Besides, under setting [2], the EC50 turned out to be 3.87 nM.

For the molecule `CCOC(=O)N1CC2(CCC(N3CCN(c4ncccc4C)CC3)C2)C1` (single isomer, unassigned) [Example 21, ethyl 6-[4-(3-methylpyridin-2-yl)piperazin-1-yl]-2-azaspiro[3.4]octane-2-carboxylate], the Emax under setting [1] came out at 96.8%. For the same molecule, under setting [2], the EC50 stood at 4.01 nM. Taken in the same sequence, the figures for `CCOC(=O)N1CCC2(CC(N3CCN(c4ncccc4-c4ccc(C#N)cn4)CC3)C2)C1` (single isomer, unassigned) [Example 23, ethyl 2-[4-(5-cyano-2,3′-bipyridin-2′-yl)piperazin-1-yl]-6-azaspiro[3.4]octane-6-carboxylate] were 85% and 143 nM. For `CCOC(=O)N1CC2(CC[C@@H](N3CCN(c4ncccc4-c4ccncn4)CC3)C2)C1` [Example 46, ethyl (6R)-6-{4-[3-(pyrimidin-4-yl)pyridin-2-yl]piperazin-1-yl}-2-azaspiro[3.4]octane-2-carboxylate], the Emax under setting [1] stood at 96.6%. Also, the EC50 under setting [2] is < 1.75 nM. `CCOC(=O)N1CC2(CCC(N3CCN(c4ncccc4-c4cnc(OC)cn4)CC3)C2)C1` (single isomer, unassigned) [Example 2, ethyl 6-{4-[3-(5-methoxypyrazin-2-yl)pyridin-2-yl]piperazin-1-yl}-2-azaspiro[3.4]octane-2-carboxylate]: under setting [2], the EC50 is > 10000 nM.

For the molecule `CCOC(=O)N1CC2(CC[C@@H](N3CCN(c4ncccc4-c4nnc(C)o4)CC3)C2)C1` [Example 51, ethyl (6R)-6-{4-[3-(5-methyl-1,3,4-oxadiazol-2-yl)pyridin-2-yl]piperazin-1-yl}-2-azaspiro[3.4]octane-2-carboxylate], the Emax under setting [1] amounted to 68.6%. Moreover, under setting [2], the EC50 came to 1.99 nM. Turning to `CCOC(=O)N1CCC2(CC(N3CCN(c4ncccc4-c4cscn4)CC3)C2)C1` (stereo not shown) [Example 16, ethyl 2-{4-[3-(1,3-thiazol-4-yl)pyridin-2-yl]piperazin-1-yl}-6-azaspiro[3.4]octane-6-carboxylate], the Emax under setting [1] turned out to be 104%. Moreover, the EC50 under setting [2] is 24.5 nM.

As for `CCOC(=O)N1CCC2(CC(N3CCN(c4ncccc4-c4cnn(C)c4)CC3)C2)C1` (stereo not shown) [Example 13, ethyl 2-{4-[3-(1-methyl-1H-pyrazol-4-yl)pyridin-2-yl]piperazin-1-yl}-6-azaspiro[3.4]octane-6-carboxylate], the Emax under setting [1] was 92.6%. Also, the EC50 under setting [2] was found to be 4.82 nM.
